Reference: ChEMBL document CHEMBL6109094, “Anti-inflammatory agents design via the fragment hybrid strategy in the discovery of compound c1 for treating ALI and UC” (Eur J Med Chem, 2025)
The source made the active and inactive calls. The rule behind the calls is not given here.

Assays:
[1] = target: Interleukin-1 receptor-associated kinase 1 (Homo sapiens) (UniProt P51617); assay: Inhibition of IRAK1 (unknown origin) at 10 uM relative to control
[2] = target: Mitogen-activated protein kinase 14 (Homo sapiens) (UniProt Q16539); assay: Inhibition of p38-alpha (unknown origin) at 10 uM relative to control
[3] = species: Homo sapiens; assay: Inhibition of TAK1 (unknown origin) at 10 uM relative to control
[4] = tested on: Mus musculus; assay: Anti-inflammatory activity in C57BL/6 mouse model of LPS-induced ALI assessed as inhibition of TNF-alpha level in BALF at 20 mg/kg, po measured after 6 hrs with administered on every 12 hrs followed by LPS treatment after 30 mins post-compound treatment by ELISA; assay type: functional, organism-based; conditions: time 6.5 hrs
[5] = tested on: Mus musculus; assay: Anti-inflammatory activity in C57BL/6 mouse model of LPS-induced ALI assessed as inhibition of IL-6 level in serum at 20 mg/kg, po measured after 6 hrs with administered on every 12 hrs followed by LPS treatment after 30 mins post-compound treatment by ELISA; assay type: functional, organism-based; conditions: time 6.5 hrs
[6] = tested on: Mus musculus; assay: Anti-inflammatory activity in C57BL/6 mouse model of LPS-induced ALI assessed as inhibition of TNF-alpha level in serum at 20 mg/kg, po measured after 6 hrs with administered on every 12 hrs followed by LPS treatment after 30 mins post-compound treatment by ELISA; assay type: functional, organism-based; conditions: time 6.5 hrs
[7] = tested on: Mus musculus; assay: Anti-inflammatory activity in C57BL/6 mouse model of LPS-induced ALI assessed as decrease in lung wet to dry ratio at 20 mg/kg, po measured after 6 hrs with administered on every 12 hrs followed by LPS treatment after 30 mins post-compound treatment; assay type: functional, organism-based; conditions: time 6.5 hrs
[8] = tested on: Mus musculus; assay: Anti-inflammatory activity in C57BL/6 mouse model of LPS-induced ALI assessed as decrease in protein concentration in BALF at 20 mg/kg, po measured after 6 hrs with administered on every 12 hrs followed by LPS treatment after 30 mins post-compound treatment; assay type: functional, organism-based; conditions: time 6.5 hrs
[9] = tested on: Mus musculus; assay: Anti-inflammatory activity in C57BL/6 mouse model of LPS-induced ALI assessed as decrease in thickening of alveolar septa in lung tissue at 20 mg/kg, po measured after 6 hrs with administered on every 12 hrs followed by LPS treatment after 30 mins post-compound treatment by H and E/IHC staining based analysis; assay type: functional, organism-based; conditions: time 6.5 hrs
[10] = tested on: Mus musculus; assay: Anti-inflammatory activity in C57BL/6 mouse model of DSS-induced ulcerative colitis assessed as decrease in DAI score at 20 to 40 mg/kg, po administered for 8 days; assay type: functional, organism-based; conditions: dose 20-40 mg/kg, time 8.0 day
[11] = tested on: Mus musculus; assay: Anti-inflammatory activity in C57BL/6 mouse model of DSS-induced ulcerative colitis assessed as colon length at 100 mg/kg, po administered for 8 days (reference value: 5.1 cm); assay type: functional, organism-based; conditions: time 8.0 day
[12] = tested on: Mus musculus; assay: Anti-inflammatory activity in C57BL/6 mouse model of DSS-induced ulcerative colitis assessed as colon length at 40 mg/kg, po administered for 8 days (reference value: 5.1 cm); assay type: functional, organism-based; conditions: time 8.0 day
[13] = tested on: Mus musculus; assay: Anti-inflammatory activity in C57BL/6 mouse model of DSS-induced ulcerative colitis assessed as decrease in hyperplasia in white pulp of spleen administered orally for 8 days; assay type: functional, organism-based; conditions: dose 20-40 mg/kg, route po, time 8.0 day
[14] = tested on: Mus musculus; assay: Anti-inflammatory activity in C57BL/6 mouse model of DSS-induced ulcerative colitis assessed as decrease in fusion of white pulp of spleen administered orally for 8 days; assay type: functional, organism-based; conditions: dose 20-40 mg/kg, route po, time 8.0 day
[15] = tested on: Mus musculus; assay: Anti-inflammatory activity in C57BL/6 mouse model of DSS-induced ulcerative colitis assessed as decrease in inflammatory cell infiltration in colonic tissue at 20 to 40 mg/kg, po administered for 8 days […]; assay type: functional, organism-based; conditions: dose 20-40 mg/kg, time 8.0 day
[16] = Acute toxicity in C57BL/6 mouse assessed as change in pathological change in liver at 100 to 200 mg/kg, po measured for 10 days by H and E staining based analysis; assay type: organism-based; conditions: in vivo, 240 h, dose 100-200 mg/kg, time 10 day
[17] = Acute toxicity in C57BL/6 mouse assessed as change in pathological change in spleen at 100 to 200 mg/kg, po measured for 10 days by H and E staining based analysis; assay type: organism-based; conditions: in vivo, 240 h, dose 100-200 mg/kg, time 10 day
[18] = Acute toxicity in C57BL/6 mouse assessed as change in pathological change in kidney at 100 to 200 mg/kg, po measured for 10 days by H and E staining based analysis; assay type: organism-based; conditions: in vivo, 240 h, dose 100-200 mg/kg, time 10 day
[19] = Half life in Sprague-Dawley rat at 1 mg/kg, iv measured for 24 hrs; assay type: ADME, organism-based; conditions: in vivo
[20] = Cmax in Sprague-Dawley rat at 1 mg/kg, iv measured for 24 hrs; assay type: ADME, organism-based; conditions: in vivo
[21] = Oral bioavailability in Sprague-Dawley rat at 10 mg/kg measured for 24 hrs; assay type: ADME, organism-based; conditions: in vivo

Chain of Interleukin-1 receptor-associated kinase 1 (Homo sapiens) (P51617 whole entry, looked up): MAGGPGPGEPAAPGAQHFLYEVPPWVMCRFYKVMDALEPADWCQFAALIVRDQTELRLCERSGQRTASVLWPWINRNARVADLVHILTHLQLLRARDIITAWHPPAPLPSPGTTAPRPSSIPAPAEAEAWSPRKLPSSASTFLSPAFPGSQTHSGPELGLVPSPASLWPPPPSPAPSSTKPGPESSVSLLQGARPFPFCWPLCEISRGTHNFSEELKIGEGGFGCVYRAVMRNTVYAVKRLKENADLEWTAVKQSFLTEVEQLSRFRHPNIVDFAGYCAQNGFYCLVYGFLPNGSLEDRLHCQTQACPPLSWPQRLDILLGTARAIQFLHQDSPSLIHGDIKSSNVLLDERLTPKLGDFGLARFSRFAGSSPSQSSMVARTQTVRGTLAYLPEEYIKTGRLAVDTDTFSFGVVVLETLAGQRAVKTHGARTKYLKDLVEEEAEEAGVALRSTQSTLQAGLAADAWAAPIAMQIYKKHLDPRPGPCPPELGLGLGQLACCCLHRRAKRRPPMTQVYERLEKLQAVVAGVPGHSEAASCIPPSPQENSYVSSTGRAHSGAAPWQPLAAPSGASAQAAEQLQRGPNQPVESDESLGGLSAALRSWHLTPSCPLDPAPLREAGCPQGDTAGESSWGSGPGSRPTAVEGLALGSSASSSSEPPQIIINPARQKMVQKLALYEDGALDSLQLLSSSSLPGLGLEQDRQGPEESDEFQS
Chain of Mitogen-activated protein kinase 14 (Homo sapiens) (Q16539 whole entry): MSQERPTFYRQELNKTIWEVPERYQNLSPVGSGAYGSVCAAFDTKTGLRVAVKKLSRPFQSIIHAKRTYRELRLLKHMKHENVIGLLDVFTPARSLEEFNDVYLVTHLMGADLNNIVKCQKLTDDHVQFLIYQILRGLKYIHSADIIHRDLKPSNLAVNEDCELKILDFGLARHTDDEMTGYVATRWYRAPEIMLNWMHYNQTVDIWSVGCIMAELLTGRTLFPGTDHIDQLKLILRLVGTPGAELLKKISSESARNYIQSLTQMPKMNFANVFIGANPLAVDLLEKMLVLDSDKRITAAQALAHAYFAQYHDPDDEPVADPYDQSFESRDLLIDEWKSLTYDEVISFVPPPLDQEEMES

With `COc1cc2c(O[C@H]3CC[C@@H](N)CC3)ncnc2cc1OCc1cccc(Br)c1` the inhibition [1] was 88.2%, the inhibition [2] was 31.4% and the inhibition [3] was 4.42%. For the same compound, the inhibition [4] was “Active”, the inhibition [5] was “Active” and the inhibition [6] was “Active”. The Activity [7] was “Active”, the Activity [8] was “Active” and the Activity [9] was “Active”. The Activity [10] was “Active”, the Activity [11] was “Active” and the Activity [12] was “Active”. The Activity [13] was “Dose-dependent-effect”, the Activity [14] was “Dose-dependent-effect” and the Activity [15] was “Active”. The Activity [16] was “Non-toxic”, the Activity [17] was “Non-toxic” and the Activity [18] was “Non-toxic”. For the same compound, the half-life [19] was 1.77 h, the Cmax [20] was 7280 ng/mL and the bioavailability [21] was 5.5%.
